Measurements: ChEMBL document CHEMBL5120977, “Orexin Receptor Agonists as Possible Treatment for Narcolepsy and Idiopathic Hypersomnia” (ACS Med Chem Lett, 2022)
pEC50: −log10 of the molar value.

Target: T1, Orexin receptor type 2 (Homo sapiens, UniProt O43614)
T1 sequence (O43614 whole entry): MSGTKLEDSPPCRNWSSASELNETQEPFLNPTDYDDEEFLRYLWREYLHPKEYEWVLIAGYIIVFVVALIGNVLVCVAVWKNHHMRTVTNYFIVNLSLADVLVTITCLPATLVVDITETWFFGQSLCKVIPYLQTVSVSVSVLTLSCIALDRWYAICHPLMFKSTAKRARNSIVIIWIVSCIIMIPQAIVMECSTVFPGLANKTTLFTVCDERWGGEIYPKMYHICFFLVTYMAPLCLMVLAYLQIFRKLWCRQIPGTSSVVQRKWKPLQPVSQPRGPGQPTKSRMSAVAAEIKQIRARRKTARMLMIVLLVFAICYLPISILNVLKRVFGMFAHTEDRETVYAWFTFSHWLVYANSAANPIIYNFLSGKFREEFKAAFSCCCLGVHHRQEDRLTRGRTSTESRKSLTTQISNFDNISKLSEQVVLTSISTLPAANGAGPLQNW
Test: Agonist activity at human OX2R expressed in CHO cells
Format: functional, cell-based

- pEC50: 9.05
Compound: CCN(C(=O)N[C@@H](C1CCCC(F)(F)C1)C(F)(F)F)[C@H](C)c1cccc(-c2cn3ccnc3c(OC)n2)c1 (stereo partly specified)
